Laboratory results: ChEMBL document CHEMBL1148298, “Molecular recognition of sub-micromolar inhibitors by the epinephrine-synthesizing enzyme phenylethanolamine N-methyltransferase” (J Med Chem, 2004)

How the values were obtained:
[1] = target: T1, Alpha-2A adrenergic receptor (Rattus norvegicus, UniProt P22909); experiment: Inhibitory potency against alpha-2-adrenoceptor
T1 sequence (P22909 whole entry): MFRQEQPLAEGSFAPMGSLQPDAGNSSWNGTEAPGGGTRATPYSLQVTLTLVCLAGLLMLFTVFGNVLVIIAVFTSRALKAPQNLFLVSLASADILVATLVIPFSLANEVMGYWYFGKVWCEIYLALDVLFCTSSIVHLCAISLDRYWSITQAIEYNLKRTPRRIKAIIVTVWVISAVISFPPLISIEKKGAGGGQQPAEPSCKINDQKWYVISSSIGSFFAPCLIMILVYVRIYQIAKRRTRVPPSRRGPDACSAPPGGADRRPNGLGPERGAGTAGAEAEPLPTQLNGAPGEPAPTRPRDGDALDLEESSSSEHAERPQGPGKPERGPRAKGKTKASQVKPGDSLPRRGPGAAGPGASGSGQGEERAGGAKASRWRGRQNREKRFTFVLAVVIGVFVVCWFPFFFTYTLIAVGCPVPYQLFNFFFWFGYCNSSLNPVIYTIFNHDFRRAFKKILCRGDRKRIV

[2] = Selectivity expressed as the ratio of Ki of alpha-2-adrenoceptor to that of PNMT
[3] = target: T2, Phenylethanolamine N-methyltransferase (Bos taurus, UniProt P10938); experiment: Inhibitory potency against bovine phenylethanolamine N-Methyltransferase (PNMT)
T2 sequence (P10938 whole entry): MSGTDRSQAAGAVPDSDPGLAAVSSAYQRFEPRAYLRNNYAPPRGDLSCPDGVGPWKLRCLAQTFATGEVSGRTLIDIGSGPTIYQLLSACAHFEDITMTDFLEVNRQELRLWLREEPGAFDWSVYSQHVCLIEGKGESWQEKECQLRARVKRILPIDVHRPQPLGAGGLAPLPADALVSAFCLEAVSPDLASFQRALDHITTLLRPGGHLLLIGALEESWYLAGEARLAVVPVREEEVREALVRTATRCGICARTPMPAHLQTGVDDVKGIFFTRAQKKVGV

[4] = substrate: NCC1CNCc2ccccc21; experiment: Michaelis-Menten constant was determined against bovine phenylethanolamine N-Methyltransferase (PNMT)
[5] = substrate: NCC1CNCc2ccccc21; experiment: (§1) Vmax was determined against bovine phenylethanolamine N-Methyltransferase (PNMT)
[6] = substrate: NC[C@@H](O)c1ccccc1; experiment: as §1

In the case of `Clc1ccc2c(c1Cl)CNCC2`, the Ki [1] is reported as […] and the Selectivity [2] is reported as […].

Molecule `OCC1CNCc2ccccc21` (stereo not drawn) has a Ki [3] of 170000 nM.

Work on `Ic1ccc2c(c1)CNCC2` yielded a Ki [1] of 220 nM.

Molecule `Clc1ccc2c(c1Cl)CNCCC2` has a Ki [1] of 4500 nM.

B1: Phenylethanolamine N-methyltransferase (Bos taurus), P10938 (protein)
chain: MSGTDRSQAAGAVPDSDPGLAAVSSAYQRFEPRAYLRNNYAPPRGDLSCPDGVGPWKLRCLAQTFATGEVSGRTLIDIGSGPTIYQLLSACAHFEDITMTDFLEVNRQELRLWLREEPGAFDWSVYSQHVCLIEGKGESWQEKECQLRARVKRILPIDVHRPQPLGAGGLAPLPADALVSAFCLEAVSPDLASFQRALDHITTLLRPGGHLLLIGALEESWYLAGEARLAVVPVREEEVREALVRTATRCGICARTPMPAHLQTGVDDVKGIFFTRAQKKVGV
B1 gave a Km [4] of 47 µM, a Vmax (nM min-1 mg-1) [5] of 3.4 and a Vmax (nM min-1 mg-1) [6] of 2.2.
